Key:
[1] = target: T1, hRIPK1 (aa 1-375) fusion protein (Homo sapiens, UniProt Q13546); assay: ADP-Glo kinase assay: catalytic activity of RIPK1 (autophosphorylation, conversion of ATP to ADP); assay type: biochemical
T1 construct: hRIPK1 (aa 1-375) fusion protein
T1 sequence (Q13546 1-375): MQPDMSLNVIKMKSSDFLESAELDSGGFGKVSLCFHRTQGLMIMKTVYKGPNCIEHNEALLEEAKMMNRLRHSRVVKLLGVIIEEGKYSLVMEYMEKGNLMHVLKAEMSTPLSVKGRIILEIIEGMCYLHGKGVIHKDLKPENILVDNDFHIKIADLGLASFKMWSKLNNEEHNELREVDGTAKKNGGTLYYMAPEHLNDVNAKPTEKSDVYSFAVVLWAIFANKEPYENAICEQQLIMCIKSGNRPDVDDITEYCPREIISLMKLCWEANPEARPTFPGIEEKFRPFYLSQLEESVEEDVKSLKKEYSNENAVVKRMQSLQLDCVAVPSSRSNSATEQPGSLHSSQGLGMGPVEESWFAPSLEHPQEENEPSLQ
Method in brief: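 The readout was ADP-Glo luminescence after a 240 min rt autophosphorylation reaction with 50 μM ATP, following 30 min preincubation of 3.6 μg/ml hRIPK1 (aa 1-375) fusion with compound at 33300-1.69 nM final in 1% DMSO. Values came from Levenberg-Marquardt nonlinear fits.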

U937 cells = assay: Cellular assay in U937 cells: activity of RIPK1 inhibitors on TNFα/zVAD.fmk-induced cell death (necroptosis), CellTiter 96 AQueous (MTS) readout; assay type: cell-based; conditions: Homo sapiens, U-937
Method in brief: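 Necroptosis was measured by viable-cell MTS reduction (4 h, absorbance 490 nm) after overnight (18–24 h) 37° C culture. Cell suspensions of U937 cells carried TNFα (100 ng/ml) plus zVAD.fmk (50 μM) before compound was added. A 10-point curve (10 μM–0.26 nM or 1 μM–0.07 nM) was run in duplicate, normalised to the control lacking TNFα/zVAD.fmk.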

SMILES | IC50 [1] [nM] | IC50 (U937 cells) [nM]
N#Cc1cc(F)cc([C@@H]2CCON2C(=O)[C@H]2CC[C@H](Cc3cc(F)c4c(c3)C(=O)NC4)CC2)c1 [compound 219, trans-3-fluoro-5-[(3S)-2-[4-[(7-fluoro-3-oxo-isoindolin-5-yl)methyl]cyclohexanecarbonyl]isoxazolidin-3-yl]benzonitrile] | 17 | 3
Cc1nc2cc(C[C@H]3CC[C@H](C(=O)N4OCC[C@H]4c4cnccn4)CC3)ccn2n1 [compound 374, trans-[4-(2-Methyl-[1,2,4]triazolo[1,5-a]pyridin-7-ylmethyl)-cyclohexyl]-((S)-3-pyrazin-2-yl-isoxazolidin-2-yl)-methanone] | 36 | 55
N#Cc1cncc([C@@H]2CCON2C(=O)[C@H]2CC[C@H](Cn3ccc4ncc(F)cc43)CC2)c1 [compound 123, trans-5-((S)-2-(4-((6-fluoro-1H-pyrrolo[3,2-b]pyridin-1-yl)methyl)cyclohexane-1-carbonyl)isoxazolidin-3-yl)nicotinonitrile] | 46 | 12
N#Cc1ccc2cnn(C[C@H]3CC[C@H](C(=O)N4OCC[C@H]4c4cnccn4)CC3)c2c1 [compound 200, trans-1-[[4-[(3S)-3-pyrazin-2-ylisoxazolidine-2-carbonyl]cyclohexyl]methyl]indazole-6-carbonitrile] | 29 | 4
Cc1nc2ccc(C[C@H]3CC[C@H](C(=O)N4OCC[C@H]4c4cncc(C#N)c4)CC3)cn2n1 [compound 262, trans-5-[(3S)-2-[4-[(2-methyl-[1,2,4]triazolo[1,5-a]pyridin-6-yl)methyl]cyclohexanecarbonyl]isoxazolidin-3-yl]pyridine-3-carbonitrile] | 34 | 67
N#Cc1cc(F)cc([C@@H]2CCON2C(=O)[C@H]2CC[C@H](Cn3ncc4ccc(C#N)cc43)CC2)c1 [compound 28, trans-1-((4-((S)-3-(3-cyano-5-fluorophenyl)isoxazolidine-2-carbonyl)cyclohexyl)methyl)-1H-indazole-6-carbonitrile] | 19 | 3
N#Cc1cc(F)cc([C@@H]2CCON2C(=O)[C@H]2CC[C@H](Cn3ncc4cc(C(N)=O)ccc43)CC2)c1 [compound 72, trans-1-((4-((S)-3-(3-cyano-5-fluorophenyl)isoxazolidine-2-carbonyl)cyclohexyl)methyl)-1H-indazole-5-carboxamide] | 30 | 10
N#Cc1cc2c(cnn2C[C@H]2CC[C@H](C(=O)N3OCC[C@H]3c3cc(F)cc(F)c3)CC2)cc1F [compound 86, trans-1-((4-((S)-3-(3,5-difluorophenyl)isoxazolidine-2-carbonyl)cyclohexyl)methyl)-5-fluoro-1H-indazole-6-carbonitrile] | 14 | 1
Cc1nc2ccc(C[C@H]3CC[C@H](C(=O)N4OCC[C@H]4c4cc(F)cc(F)c4)CC3)cn2n1 [compound 223, trans-[(3S)-3-(3,5-difluorophenyl)isoxazolidin-2-yl]-[4-[(2-methyl-[1,2,4]triazolo[1,5-a]pyridin-6-yl)methyl]cyclohexyl]methanone] | 19 | 5
Cc1cn2cc(C[C@H]3CC[C@H](C(=O)N4OCC[C@H]4c4cc(F)cc(F)c4)CC3)ccc2n1 [compound 227, trans-[(3S)-3-(3,5-difluorophenyl)isoxazolidin-2-yl]-[4-[(2-methylimidazo[1,2-a]pyridin-6-yl)methyl]cyclohexyl]methanone] | 23 | 5
N#Cc1cc(F)cc([C@@H]2CCON2C(=O)[C@H]2CC[C@H](Cn3ccc4ncc(OC5COC5)cc43)CC2)c1 [compound 146, trans-3-fluoro-5-[(3S)-2-[4-[[6-(oxetan-3-yloxy)pyrrolo[3,2-b]pyridin-1-yl]methyl]cyclohexanecarbonyl]isoxazolidin-3-yl]benzonitrile] | 28 | 26
Cc1ccc(C[C@H]2CC[C@H](C(=O)N3OCC[C@H]3c3cc(F)cc(F)c3)CC2)cc1C(N)=O [compound 132, trans-5-[[4-[(3S)-3-(3,5-difluorophenyl)isoxazolidine-2-carbonyl]cyclohexyl]methyl]-2-methyl-benzamide] | 13 | 4
Cc1cn2ncc(C[C@H]3CC[C@H](C(=O)N4OCC[C@H]4c4cnccn4)CC3)cc2n1 [compound 349, trams-[4-[(2-methylimidazo[1,2-b]pyridazin-7-yl)methyl]cyclohexyl]-[(3S)-3-pyrazin-2-yl-1,2-oxazolidin-2-yl]methanone] | 42 | 108
Cc1cnc([C@@H]2CCON2C(=O)[C@H]2CC[C@H](Cc3cc(F)cnc3C)CC2)cn1 [compound 316, trans-[4-[(5-fluoro-2-methyl-3-pyridyl)methyl]cyclohexyl]-[(3S)-3-(5-methylpyrazin-2-yl)isoxazolidin-2-yl]methanone] | 31 | 27
N#Cc1cncc([C@@H]2CCON2C(=O)[C@H]2CC[C@H](Cn3cnc4cc(C#N)c(F)cc43)CC2)c1 [compound 65, trans-1-((4-((S)-3-(5-cyanopyridin-3-yl)isoxazolidine-2-carbonyl)cyclohexyl)methyl)-6-fluoro-1H-benzo[d]imidazole-5-carbonitrile] | 51 | 164
N#Cc1cc(F)cc([C@@H]2CCON2C(=O)[C@H]2CC[C@H](Cn3ncc4ncc(C(N)=O)cc43)CC2)c1 [compound 78, trans-1-((4-((S)-3-(3-cyano-5-fluorophenyl)isoxazolidine-2-carbonyl)cyclohexyl)methyl)-1H-pyrazolo[4,3-b]pyridine-6-carboxamide] | 40 | 72
Cc1cn2ncc(C[C@H]3CC[C@H](C(=O)N4OCC[C@H]4c4cccc(F)c4)CC3)cc2n1 [compound 323, [2-fluoro-4-[(3S)-2-[4-[(2-methylimidazo[1,2-b]pyridazin-7-yl)methyl]cyclohexanecarbonyl]isoxazolidin-3-yl]phenyl]] | 10 | 6
N#Cc1cnc2cnn(C[C@H]3CC[C@H](C(=O)N4OCC[C@H]4c4cnccn4)CC3)c2c1 [compound 137, trans-1-[[4-[(3S)-3-pyrazin-2-ylisoxazolidine-2-carbonyl]cyclohexyl]methyl]pyrazolo[4,3-b]pyridine-6-carbonitrile] | 30 | 46
Cc1ccc([C@@H]2CCON2C(=O)[C@H]2CC[C@H](Cc3cc(F)c4nc(C)nn4c3)CC2)cn1 [compound 341, trans-[4-[(8-fluoro-2-methyl-[1,2,4]triazolo[1,5-a]pyridin-6-yl)methyl]cyclohexyl]-[(3S)-3-(6-methylpyridin-3-yl)-1,2-oxazolidin-2-yl]methanone] | 81 | 114
Cn1ncc2ncc(C[C@H]3CC[C@H](C(=O)N4OCC[C@H]4c4cc(F)cc(C#N)c4)CC3)cc21 [compound 296, trans-3-fluoro-5-[(3S)-2-[4-[(1-methylpyrazolo[4,3-b]pyridin-6-yl)methyl]cyclohexanecarbonyl]isoxazolidin-3-yl]benzonitrile] | 5 | 2

Reference: patent US20260158009A1 (GENZYME CORPORATION, priority 2023, published 2026)
